Legend:
[1] = test system: Oxidatively competent cells; assay: SYTOX cell death assay in oxidatively competent cells treated with antimycin A; assay type: cell-based
Experimental: Oxidatively competent cells are prepared as described in Example 1. and Example 2.A and are seeded onto 96-well plates at 1×10^3/well or 2.5×10^3/well as passage 15. The cells are grown in DMEM with 10% FBS and 1.5 g/L sodium bicarbonate for 24 or 48 hours to reach 85% confluence. The cells are washed once with HBSS and then 100 μl of HBSS containing different concentration of AA (Sigma, Cat #A 8674) is added to the cells. AA is dissolved in DMSO to make a stock solution of 50 mM, then diluted with HBSS to 25, 12.5, 6.25, 3.125, and 1.56 μM for dose-response curves. The cells, with or without AA, are incubated at 37° C. in a 5% CO2 humidified incubator for 1 to 5 hours. The concentration of AA is chosen to induce 75% or 100% cell death as a screening dose to test the effect of agents to protect against AA- induced cell toxicity. The concentration of agents used for screening will be dependent upon the agents. Certain control groups contain 100 μl of HBSS only.
(§1) SYTOX Green nucleic acid stain is a high-affinity nucleic acid stain that easily penetrates cells with a compromised plasma membrane but will not cross the membrane of live cells. The nucleic acids of dead cells fluoresce bright green at 524 nm when excited with the 488 nm spectral source or with any other 450-500 nm source. […] In the cell viability assay chemical ischemia is created in cells and then cells are incubated with the SYTOX dye. The compound antimycin is used to simulate ischemia at the same time as stimulating the cells with forskolin. […] The assay is performed on cells grown in 96-well format allowing high throughput screening of compounds.
(§2) Compound(s) are mixed with the 1 μM SYTOX working solution and added to the washed cell culture wells. Fluorescence is measured at designated time points (488 nm excitation and 530 nm emission). All of the sample readings subtract the background readings, which is cell-free wells only containing HBSS buffer with SYTOX green dye. The data is compared to non-treated cells (control) and is expressed as mean±S.D. from 4 culture wells. SYTOX Green fluorescence units obtained from each group are corrected for basal fluorescence (cell-free wells with only HBSS and fluorescence reagent). Data are represented as mean±SD. A paired t-test is performed comparing treated groups (Toxin+Agent) with non-treated groups (Toxin only) after subtracting the control groups (HBSS only) for each data set. Comparisons among groups are statistically evaluated by two-tailed t-test (Graphpad Prism Software, version 2.0). Differences are considered significant at P<0.05.
Oxidatively competent cells were treated simultaneously with hesperetin, chrysin and 100 nM antimycin A2.C. The cells were treated with various low concentrations of hesperetin and various concentrations of chrysin (Sigma Chemical Co., cat. #C3018). Hesperetin, chrysin and antimycin A were mixed together before treating the cells. Cell viability was measured at time points up to 5 hours using SYTOX, as described in Example 2.F.
In experiments carried out in support of the invention, various concentrations of diosmin and alpha-tocopherol were tested for synergistic ability to ameliorate disruption of energy metabolism secondary to stress. Oxidatively competent cells were treated simultaneously with diosmin, alpha-tocopherol and antimycin A2.C. The cells were treated with various low concentrations of diosmin (Sigma Chemical Co., cat. #D3525) and various low concentrations of (+/−) alpha-tocopherol. Diosmin, alpha-tocopherol and antimycin were mixed together before treating cells. Cell viability was measured 4 hours after treatment using SYTOX. […] Likewise, the combination of disomin (11-100 μM) with 1.1 μg/ml (+/−) alpha tocopherol was synergistic. […] Diosmin alone provided no protection at a concentration of 100 μM. […] A combination of 100 μM diosmin and 11 μg/ml (+/−) alpha tocopherol was also synergistic. […]

[2] = cited from earlier work
[3] = test system: GCL1 cells; assay: SYTOX cell death assay in GCL1 cells treated with antimycin A (chemical ischemia); assay type: cell-based, rat hepatoma cells (fao) / human fibroblasts (W138) hybrid
From the text: At greater than 80% confluence, more than 80% of the cells participate in forming one or more phaselucent, spherical structures that are located between cells, termed bile canicular-like spaces. In contrast to the majority of cell lines maintained in culture which are fermentative, GCL1 cells, when at their maximal density and polarity, are highly oxidative (i.e., they can be readily killed by inhibitors of oxidative phosphorylation or electron transport uncouplers). […] These cells are amenable to use in high throughput screening (HTS) technology.
The cells, with or without AA, are incubated at 37° C. in a 5% CO2 humidified incubator for 1 to 5 hours. […] The concentration of agents used for screening will be dependent upon the agents. Certain control groups contain 100 μl of HBSS only.
as §1
Aliquot at 100 μl. This 10 mM stock is then diluted to 1 mM with DMSO and aliquoted at 25 μL. Both the 10 mM and the 1 mM are stored at −20° C. until use. […] Aliquot at 100 μl and store at −20° C. until use. iv.) HBSS-SYTOX-FORSKOLIN-ANTIMYCIN (H-S-F-A) solution: H-S-F-A solution is made up fresh prior to each assay in sterile 175 ml or 225 ml Falcon bottles. […]
Cells are grown in 96-well black plates (with or without clear bottoms) at a density of 1000 cells per well for 24 hours. The necessary number of 96-well plates containing the specific cell type are obtained and placed in the laminar flow safety cabinet. A sterile microtiter basin is filled with the appropriate volume of pre-warmed 1×HBSS. Using aseptic technique and an 8-channel aspirator, the media is carefully removed from the cells and replaced with 200 μl of 1×HBSS. This is done as quickly as possible to prevent the cells drying out. The plates are then placed in the humidified 37° C. incubators of the Biomek 2000 Side Loader. Four plates are washed at a time so as to minimize the time that the cells are sitting in 1×HBSS prior to addition of the H-S-A-compound test solution.
as §2
Hesperetin, diosmin, luteolin and quercetin were tested individually for their ability to counteract disruptions of normal energy metabolism. Flavonoids were commercially obtained, generally from Sigma Chemical Co., St. Louis, Mo., and/or Aldrich Chemical Co., Milwaukee, Wis.

[4] = 25 μM hesperetin alone, 4 hours, control cell death 82.9%

COc1ccc([C@@H]2CC(=O)c3c(O)cc(O)cc3O2)cc1O [Hesperetin, (S)-2,3-dihydro-5,7-dihydroxy-2-(3-hydroxy-4-methoxyphenyl)-4H-1-benzopyran-4-one]
Cell Death ([1]; 50 μM hesperetin alone, control 72.9%): 73.4% | protection when tested separately ([1]; 2 and 50 μM hesperetin, four hours): generally ineffective | abnormalities observed for a week ([2]; administered orally to mice at 100 mg/kg (U.S. Pat. No. 5,650,433)): no abnormalities were observed | effects on liver function ([2]; tests using mice): no adverse effects on liver function | toxicity or mitogenicity ([2]; tests using mice): little toxicity or mitogenicity | Cell Death [3, 4]: 81.1% | reduction in cell death [3, 4]: 1.8% | protection ([3]; 50 μM Hesperetin alone): 14.4% | Cell Death ([3]; 50 μM Hesperetin alone, 4 hours, control 82.1%): 81.3% | Cell Death ([3]; 50 μM hesperetin alone, 4 hours, control 97.4%): 92.6% | protection above control level ([3]; 75 μM Hesperetin by itself): 7.5% | Cell Death ([3]; Hesperetin 1.9 μM, antimycin A 100 nM, time 0:00 hr:min): 0.0% ± 0.0 | Cell Death ([3]; Hesperetin 1.9 μM, antimycin A 100 nM, time 1:45 hr:min): 0.5% ± 0.6 | Cell Death ([3]; Hesperetin 1.9 μM, antimycin A 100 nM, time 2:45 hr:min): 30.4% ± 3.3 | Cell Death ([3]; Hesperetin 1.9 μM, antimycin A 100 nM, time 3:45 hr:min): 66.0% ± 3.1 | Cell Death ([3]; Hesperetin 1.9 μM, antimycin A 100 nM, time 4:45 hr:min): 81.5% ± 1.4 | Cell Death ([3]; Hesperetin 6 μM, antimycin A 100 nM, time 0:00 hr:min): 0.0% ± 0.0 | Cell Death ([3]; Hesperetin 6 μM, antimycin A 100 nM, time 1:45 hr:min): 1.8% ± 0.8 | Cell Death ([3]; Hesperetin 6 μM, antimycin A 100 nM, time 2:45 hr:min): 28.4% ± 1.5 | Cell Death ([3]; Hesperetin 6 μM, antimycin A 100 nM, time 3:45 hr:min): 65.0% ± 1.5 | Cell Death ([3]; Hesperetin 6 μM, antimycin A 100 nM, time 4:45 hr:min): 81.8% ± 0.7 | Cell Death ([3]; Hesperetin 17 μM, antimycin A 100 nM, time 0:00 hr:min): 0.0% ± 0.0 | Cell Death ([3]; Hesperetin 17 μM, antimycin A 100 nM, time 2:45 hr:min): 27.2% ± 2.0 | Cell Death ([3]; Hesperetin 17 μM, antimycin A 100 nM, time 3:45 hr:min): 64.1% ± 0.6 | Cell Death ([3]; Hesperetin 17 μM, antimycin A 100 nM, time 4:45 hr:min): 80.3% ± 1.0 | Cell Death ([3]; Hesperetin 50 μM, antimycin A 100 nM, time 0:00 hr:min): 0.0% ± 0.0 | Cell Death ([3]; Hesperetin 50 μM, antimycin A 100 nM, time 1:45 hr:min): 2.3% ± 0.3 | Cell Death ([3]; Hesperetin 50 μM, antimycin A 100 nM, time 2:45 hr:min): 14.4% ± 2.2 | Cell Death ([3]; Hesperetin 50 μM, antimycin A 100 nM, time 3:45 hr:min): 53.1% ± 5.7 | Cell Death ([3]; Hesperetin 50 μM, antimycin A 100 nM, time 4:45 hr:min): 74.0% ± 6.2 | protective effect ([3]; concentrations of 50 μM and below): little, if any, protective effect
